Laboratory results reported in patent USRE37793E1, “Method and composition for inhibiting bacteria” (Winthrop University Hospital, priority 1995, dated 2002).

Columns and labels:
[1] = tested on: gut flora; assay: Effect on gut flora and fecal production; parameters: species or system rats; conditions: rat, in vivo
[2] = tested on: Klebsiella pneumoniae; assay type: cell-based
[3] = tested on: bacteria; assay type: cell-based
[4] = tested on: vancomycin-resistant enterococci (VRE); assay type: cell-based
[5] = tested on: V.cholerae, S.flexneri, and Y.enterocolitica
[6] = tested on: E. coli and Salmonella; conditions: lag time and 18 hour turbidity only marginally affected
[7] = tested on: bacteria; assay: Effect of cations (iron, copper) in culture medium on antibacterial activity; assay type: cell-based; conditions: iron added to culture medium
Description: Oxygen tension effects were determined by agar diffusion in aerobic, microaerophilic (Candle jar), and anaerobic (GasPak) conditions. […] Other amounts and ratios were tested. Culture condition effects, such as pH or temperature were evaluated in broth mediums.
Therefore, these antagonists could be used to neutralize BisBAL when necessary.

[8] = tested on: Helicobacter pylori; assay type: cell-based
[9] = tested on: methicillin-resistant S. aureus (MRSA); assay: Agar diffusion, zones of inhibition; assay type: cell-based, Staphylococcus aureus; conditions: MRSA (27 isolates); discs Bi(No3)3 157 μg, BAL 186 μg, BisBAL 157/31 μg; 24 h, 37° C.

In the case of `O=C([O-])c1ccccc1[O-].[Bi+3].[OH-]` [BSS], the “Effect on gut flora” value [1] is reported as “does not have a significant growth-inhibiting effect”.
For `[H]/N=C(\N/C(=N/[H])NCCCCCCNC(=N)NC(=N)Nc1ccc(Cl)cc1)Nc1ccc(Cl)cc1` [CHX, chlorhexidine], the “Effect on CPS expression” value ([2]; even at 0.75 of the MIC) was “no significant effect”.
`O=S(=O)(O)CC(S)CS` (stereo not drawn) [DMPS, 2,3-dimercaptopropane-1-sulfonic acid] was tested, and the “Effect of thiol-containing chelator on antibacterial properties of bismuth” value (from here on “Effect of thiol-containing chelator”) [3] was “do not increase its antibacterial properties”.
With `O=C(O)[C@@H](S)[C@@H](S)C(=O)O` [DMSA, dimercapto-succinic acid] the “Effect of thiol-containing chelator” value [3] was “do not increase its antibacterial properties”.
For `N[C@@H](CS)C(=O)O` [cysteine], the “Effect of thiol-containing chelator” value [3] was “do not increase its antibacterial properties”.
bismuth nitrate [Bi(NO3)3] was tested, and the “Zones of Inhibition” value [4] was 7.3 ± 1.4 mm, the “Bi^3+ concentration bacteria could withstand” value [5] was “up to 50 μM” and the “Bi^3+ concentration in whose presence bacteria grew well” value [6] was 250 to 500 µM. For the same compound, the “Concentration at which capsule and slime expression is inhibited” value ([2]; subinhibitory levels) was “greater than 500 μM”, the “Reversal of antibacterial effects by iron” value [7] was “can be reversed by addition of micromolar amounts of iron” and the “Zone diameter of inhibition” value [8] was “little or no zones of inhibition”. The “Zones of Inhibition” value [9] was 7.3 ± 2.8 mm.
